Measured values published in US20110288154A1, “RNA Interference Mediated Inhibition of Epithelial Sodium Channel (ENaC) Gene Expression Using Short Interfering Nucleic Acid (siNA)” (MERCK & CO., INC., priority 2008, published 2011).
[invAb] = inverted abasic unit; m = 2'-O-methyl; r = 2'-OH (RNA); f = 2'-fluoro

How the values were obtained:
rSCNN1A (r ENaCα) mRNA = experiment: Screening of ENaCα siNAs in Rat H-4-II-E cells (quantitative RT-PCR); assay type: cell-based; design: Percent Reduction of the r ENaCα mRNA relative to a non-targeting control siNA (NTCs) / Rat % KD (efficacy of ENaCα mRNA knockdown): concentration or dose not given beside the values; conditions: for Mean (rSCNN1A expression normalized to the level of rGAPDH) / Percent Reduction of the r ENaCα mRNA relative to a non-targeting control siNA (NTCs) / Avg ENaCα Expression (rSCNN1A) / Avg GAPDH Expression (rGAPDH): Rat H-4-II-E cells, n = 3; for Mean (rSCNN1A expression normalized to the level of rGAPDH) / Percent Reduction of the r ENaCα mRNA relative to a non-targeting control siNA (NTCs) / Avg GAPDH Expression (rGAPDH): 24 hours post-transfection; for Avg ENaCα Expression (rSCNN1A): harvested 24 hours post-transfection; for Avg GAPDH Expression (rGAPDH): housekeeping gene used for normalisation; for IC50 / Rat % KD (efficacy of ENaCα mRNA knockdown): rat cell line; for IC50: dose response, read-out: Rat IC50 (potency of ENaCα mRNA knockdown); for Rat % KD (efficacy of ENaCα mRNA knockdown): summary
Description: (§1) A series of probes and primers were used to detect the various mRNA transcripts of the genes of ENaCa and GAPDH in mouse, rat, and human cell lines. The assays were performed on an ABI 7500 instrument, according to the manufacturer's instructions. Within each experiment, the baseline was set in the exponential phase of the amplification curve, and based on the intersection point of the baselines with the amplification curve, a Ct value was assigned by the instrument. This Ct value was then assigned a QTY value based on the Standard Curve. The standard curve in the various experiments herein used 1 ng to 300 ng of RNA extracted from the same cell line used for the experimental transfections.
(§2) All IC50 values were calculated from the data using GraphPad Prizm software, specifically a sigmoidal, variable slope curve for simple ligand binding. Also, unless otherwise indicated, all calculations of the efficacy and potency (e.g., % knockdown) of the siNAs were done relative to a non-targeting control siNA. If reported, P-values were computed using The Students t-test, including the Welch Correction for unequal variances.
(§3) In all of the calculations of the % knock-down of mRNA, the calculation was made relative to the normalized level of expression of the gene of interest in the samples treated with the non-targeting control (NTC) unless otherwise indicated. The gene of interest expression level was divided by the level of expression of GAPDH or 36B4 (depending on the species) in each sample. The three replicates for each condition in each experiment were averaged and the standard deviation of those samples was calculated. The following formula was then used to calculate the % of knock-down of the gene of interest:
(§4) The ENaCα siNAs were designed and synthesized as described previously. The siNAs were screened in three cell lines. Human A549 cells, mouse NIH 3T3 and Rat H-4-II-E cells. The data from the screen of ENaCa siNAs in all three species is shown in Tables 3a, 3b, 4a, 4b, 5a, and 5b and a summary of the data for certain siNA molecules is presented in Table 6. Each screen was performed at 24 hrs. The decision to use this time point was based upon the degree of knockdown of the mRNA seen at that time point.

mSCNN1A mRNA = experiment: Screening of ENaCα siNAs in mouse NIH 3T3 cells (quantitative RT-PCR); assay type: cell-based; design: Percent Reduction of the mSCNN1A mRNA relative to a non-targeting control siNA / Mouse % KD (efficacy of ENaCα mRNA knockdown): concentration or dose not given beside the values; conditions: for Mean (mSCNN1A expression normalized to the level of m36B4) / Percent Reduction of the mSCNN1A mRNA relative to a non-targeting control siNA / Avg ENaCα Expression (mSCNN1A) / Avg 36B4 Expression: mouse NIH 3T3 cells, n = 3; for Mean (mSCNN1A expression normalized to the level of m36B4) / Percent Reduction of the mSCNN1A mRNA relative to a non-targeting control siNA / Avg 36B4 Expression: 24 hours post-transfection; for Avg ENaCα Expression (mSCNN1A): harvested 24 hours post-transfection; for Avg 36B4 Expression: housekeeping gene used for normalisation; for IC50 / Mouse % KD (efficacy of ENaCα mRNA knockdown): mouse cell line; for IC50: dose response, read-out: Mouse IC50 (potency of ENaCα mRNA knockdown); for Mouse % KD (efficacy of ENaCα mRNA knockdown): summary
Description: siNA constructs (Table 1b) may be tested for efficacy in reducing ENaC RNA expression in, for example, A549 human lung carcinoma cells. A549 (human; ATCC cat# CCL-185) cells were cultured at 37° C. in the presence of 5% CO2 and grown in Ham's F12K medium with 2 mM L-glutamine adjusted to contain 1.5 g/L sodium bicarbonate and supplemented with fetal bovine serum at a final concentration of 10% and 100 U/mL penicillin. The A549 cells were plated approximately 24 hours before transfection in 96-well plates at 7,500 cells/well, 100 μl/well. After 24 hours complexes containing siNA and Lipofectamine 2000 (Invitrogen) were created as follows: a solution of Lipofectamine 2000 in OPTI-MEM was prepared containing Lipofectamine 2000 at a final concentration of 14 μg/ml. In parallel, solutions of the siNAs were prepared in OPTI-MEM at a final concentration of 150 nM. After both solutions were incubated at 20° C. for 20 minutes an equal volume of the siNA solutions and the Lipofectamine 2000 solution were added together for each of the siNAs. The resultant solution has the siNAs at a final concentration of 75 nM and Lipofectamine 2000 at a final concentration of 7 μg/ml. This solution was incubated at 20° C. for 20 minutes. After incubation 50 μl of the solution were added to each of the wells (in triplicate). The final concentration of siNA in each well was 25 nM and the final concentration of Lipofectamine 2000 in each well was 2.33 μg/ml. The plates were incubated for 48 hours with no change of media before harvesting. Dose response curves were determined in a similar manner with each concentration being done in triplicate and maintaining a constant amount of Lipofectamine 2000 in each transfection.
as §1, §2, §3, §4

Substance | Mean (rSCNN1A expression normalized to the level of rGAPDH) (rSCNN1A (r ENaCα) mRNA) | Percent Reduction of the r ENaCα mRNA relative to a non-targeting control siNA (NTCs) (rSCNN1A (r ENaCα) mRNA) | Avg ENaCα Expression (rSCNN1A) (rSCNN1A (r ENaCα) mRNA) | Avg GAPDH Expression (rGAPDH) (rSCNN1A (r ENaCα) mRNA) | Mean (mSCNN1A expression normalized to the level of m36B4) (mSCNN1A mRNA) | Percent Reduction of the mSCNN1A mRNA relative to a non-targeting control siNA (mSCNN1A mRNA) | Avg ENaCα Expression (mSCNN1A) (mSCNN1A mRNA) | Avg 36B4 Expression (mSCNN1A mRNA) | IC50 (rSCNN1A (r ENaCα) mRNA) | Rat % KD (efficacy of ENaCα mRNA knockdown) (rSCNN1A (r ENaCα) mRNA) | IC50 (mSCNN1A mRNA) | Mouse % KD (efficacy of ENaCα mRNA knockdown) (mSCNN1A mRNA)
B GGcuGuGccuAcAucuucu TTB / AGAAGAuGucGGcAcAGccUU (sense GGCUGUGCCUACAUCUUCUTT; antisense AGAAGAUGUCGGCACAGCCUU; siRNA; sense: DNA at AGT, 2'-fluoro at CU, [invAb] at 5' end, 3' end, backbone not given here; antisense: sugars from the 5' end rrrmmmfmffmmfmfmmffmm, backbone not given here) [Site 1387] | 0.71 | 23.3% | 24.12 | 34.37 | 0.06 | 59.1% | 1.37 | 24.37 |  |  |  | 
B GcAuGAAGAcGGccuucuG TTB / CAGAAGGccGuCuucAuGcUU (chain 1 GCAUGAAGACGGCCUUCUGTT; chain 2 CAGAAGGCCGUCUUCAUGCUU; siRNA; chain 1: DNA at AGT, 2'-fluoro at CU, [invAb] at 5' end, 3' end, backbone not given here; chain 2: sugars from the 5' end rrrmmmmffmfmfffmfmfmm, backbone not given here) [Site 341] | 1.05 | 18.4% | 19.10 | 18.30 | 0.23 | 3.9% | 3.17 | 13.56 |  |  |  | 
B GccAGuGGAGccuGuGGuu TTB / AACcAcAGGcuccAcuGGcUU (sense GCCAGUGGAGCCUGUGGUUTT; antisense AACCACAGGCUCCACUGGCUU; siRNA; sense: DNA at AGT, 2'-fluoro at CU, [invAb] at 5' end, 3' end, backbone not given here; antisense: sugars from the 5' end rrrfmfmmmffffmffmmfmm, backbone not given here) [Site 1757] | 0.72 | 21.5% | 29.36 | 40.49 | 0.11 | 22.2% | 2.58 | 24.24 |  |  |  | 
B GccAuccGccuGGuGuGcu TTB / AGCAcAccAGGcGGAuGGcUU (sense GCCAUCCGCCUGGUGUGCUTT; antisense AGCACACCAGGCGGAUGGCUU; siRNA; sense: DNA at AGT, 2'-fluoro at CU, [invAb] at 5' end, 3' end, backbone not given here; antisense: sugars from the 5' end rrrmfmffmmmfmmrfmmfmm, backbone not given here) [Site 310] | 0.92 | 28.3% | 18.39 | 20.12 | 0.20 | 16.6% | 3.19 | 16.02 |  |  |  | 
B GcuGuGccuAcAucuucuA TTB / UAGAAGAuGuAGGcAcAGcUU (sense GCUGUGCCUACAUCUUCUATT; antisense UAGAAGAUGUAGGCACAGCUU; siRNA; B caps on sense ends, letter-case modifications not given here, further chemistry not given here) [Site 1388] | 0.32 | 65.6% | 11.65 | 37.10 | 0.04 | 73.4% | 0.90 | 24.18 | 0.9 nM | 65% | 1.9 nM | 73%
B GuGGcuGuGccuAcAucuu TTB / AAGAuGuAGGcAcAGccAcUU (sense GUGGCUGUGCCUACAUCUUTT; antisense AAGAUGUAGGCACAGCCACUU; siRNA; sense: DNA at AGT, 2'-fluoro at CU, [invAb] at 5' end, 3' end, backbone not given here; antisense: sugars from the 5' end rrrmfmfmmmfmfmmffmfmm, backbone not given here) [Site 1385] | 0.58 | 36.7% | 19.09 | 30.04 | 0.13 | 4.4% | 2.95 | 22.75 |  |  |  | 
B GuGuGGcuGuGccuAcAuc TTB / GAUGuAGGcAcAGccAcAcUU (sense GUGUGGCUGUGCCUACAUCTT; antisense GAUGUAGGCACAGCCACACUU; siRNA; B caps on sense ends, letter-case modifications not given here, further chemistry not given here) [Site 1383] | 0.63 | 50.7% | 15.01 | 23.52 | 0.04 | 82.4% | 0.91 | 14.23 | 1 nM | 50% | 3 nM | 82%
B GuccAAccuGGGcAGccAG TTB / CUGGcuGcccAGGuuGGAcUU (sense GUCCAACCUGGGCAGCCAGTT; antisense CUGGCUGCCCAGGUUGGACUU; siRNA; sense: DNA at AGT, 2'-fluoro at CU, [invAb] at 5' end, 3' end, backbone not given here; antisense: sugars from the 5' end rmmmffmfffmmmffmmmfmm, backbone not given here) [Site 1743] | 0.52 | 43.9% | 22.13 | 42.82 | 0.13 | 6.7% | 2.87 | 22.47 |  |  |  | 
